Drawing on patent publication US11021481B2, “Substituted isoindolin-1-ones and 2,3-dihydro-1h-pyrrolo[3,4-c]pyridin-1-ones as HPK1 antagonists” (Nimbus Saturn, Inc., priority 2019, dated 2021), this text covers IC50 for 32 compounds.

SMILES strings stand for the structures.

For this assay, the target named is HPK1 (Homo sapiens (Human), UniProt Q92918). Kind of assay: HPK1 biochemical enzyme assay (microfluidic mobility shift assay). Particulars: 1.5 nM HPK1, ATP 1 mM final, 30 min preincubation, 60 min at RT, Caliper EZ Reader; read-out: HPK1 1000UMATP caliper IC50. The procedure, abridged: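 Ten-point compound titrations (top 3 μM final) preincubated 30 min with HPK1 and substrate, then reaction started with 1 mM ATP and 1 μM substrate, 5 mM MgCl2. After 60 min at RT, reaction terminated and product measured by microfluidic mobility shift.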
Sequence of HPK1 (Q92918 whole entry): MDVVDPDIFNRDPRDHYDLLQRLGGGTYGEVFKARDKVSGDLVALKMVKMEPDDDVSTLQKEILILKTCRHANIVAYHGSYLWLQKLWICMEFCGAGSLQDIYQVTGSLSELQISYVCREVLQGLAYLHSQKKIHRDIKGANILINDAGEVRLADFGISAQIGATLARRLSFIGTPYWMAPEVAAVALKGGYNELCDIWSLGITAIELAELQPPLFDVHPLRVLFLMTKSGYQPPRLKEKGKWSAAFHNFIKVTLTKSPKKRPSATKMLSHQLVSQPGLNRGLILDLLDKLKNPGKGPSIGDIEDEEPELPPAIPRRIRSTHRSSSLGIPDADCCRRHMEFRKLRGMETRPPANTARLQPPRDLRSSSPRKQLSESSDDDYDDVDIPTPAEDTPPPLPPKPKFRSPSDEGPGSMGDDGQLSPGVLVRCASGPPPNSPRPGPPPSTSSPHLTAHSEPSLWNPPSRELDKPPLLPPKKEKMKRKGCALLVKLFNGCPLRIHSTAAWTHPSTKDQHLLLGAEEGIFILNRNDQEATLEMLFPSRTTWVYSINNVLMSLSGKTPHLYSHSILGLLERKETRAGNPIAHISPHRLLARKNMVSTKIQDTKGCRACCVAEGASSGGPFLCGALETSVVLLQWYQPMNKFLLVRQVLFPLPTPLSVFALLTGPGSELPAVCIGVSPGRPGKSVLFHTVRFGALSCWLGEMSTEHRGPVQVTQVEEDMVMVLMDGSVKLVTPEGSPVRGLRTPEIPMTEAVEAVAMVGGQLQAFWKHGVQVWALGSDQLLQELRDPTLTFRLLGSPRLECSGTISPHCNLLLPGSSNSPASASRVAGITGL
In general, IC50 refers to the concentration that inhibits the measured activity by half. Take `CN(C)Cc1nc(Nc2ccc(-c3cnc4cc(F)ccn34)c3c2C(=O)NC3)ccc1[C@@]1(O)CCOC1` [I-804, (S)-7-((6-((dimethylamino)-methyl)-5-(3-hydroxytetra-hydrofuran-3-yl)pyridin-2-yl)amino)-4-(7-fluoroimidazo [1,2-a]pyridin-3-yl)isoindolin-1-one]: the IC50 is under 100 nM. `CN[C@H]1CCCN(c2ccc(Nc3ccc(-c4ccnc5c4ccn5C)c4c3C(=O)NC4)nc2)C1` [I-97, 7-[[5-[(3S)-3-(methylamino)-1-piperidyl]-2-pyridyl]amino]-4-(1-methylpyrrolo [2,3-b]pyridin-4-yl)isoindolin-1-one]: the IC50 is under 100 nM. Then `CN(C)Cc1nc(Nc2ccc(-c3cnc4cc(F)ccn34)c3c2C(=O)NC3)ccc1S(C)(=O)=O` [I-796, 7-((6-((dimethylamino)-methyl)-5-(methylsulfon-yl)pyridin-2-yl)amino)-4-(7-fluoroimidazo [1,2-a]pyridin-3-yl)isoindolin-1-one], with under 100 nM. `CN1CCN(c2ccc(Nc3cnc(-c4ccnc5c4ccn5C)c4c3C(=O)NC4)nc2)CC1` [I-18, 7-[[5-(4-methylpiperazin-1-yl)-2-pyridyl]amino]-4-(1-methylpyrrolo [2,3-b]pyridin-4-yl)-2,3-dihydropyrrolo [3,4-c]pyridin-1-one]: the IC50 is under 100 nM. Under `CN1CCN(c2ccc(Nc3ccc(-c4ccnc5c4cnn5C)c4c3C(=O)NC4)nc2)CC1` [I-61, 7-[[5-(4-methylpiperazn-1-yl)-2-pyridyl]amino]-4-(1-methylpyrazolo [3,4-b]pyridin-4-yl)isoindolin-1-one] stands 100 to 1000 nM; under `CN(C)Cc1nc(Nc2cnc(-c3ccnc4[nH]ccc34)c3c2C(=O)NC3)ccc1[C@@H]1CCOC1` [I-766, (S)-7-((6-((dimethylamino)-methyl)-5-(tetrahydrofuran-3-yl)pyridin-2-yl)amino)-4-(1H-pyrrolo[2,3-b]pyridin-4-yl)-2,3-dihydro-1H-pyrrolo[3,4-c]pyridin-1-one], under 100 nM; under `CN1CCN(c2ccc(Nc3ccc(-c4cccc5[nH]ccc45)c4c3C(=O)NC4)nc2)CC1` [I-41, 4-(1H-indol-4-yl)-7-[[5-(4-methylpiperazin-1-yl)-2-pyridyl]amino] isoindolin-1-one], under 100 nM. Then `Cc1cccn2c(-c3ccc(Nc4ccc(N5CCC(O)(CN6CCN(C)CC6)CC5)cn4)c4c3CNC4=O)cnc12` [I-402, 7-((5-(4-hydroy-4-((4-methylpiperazin-1-yl)methyl)piper-idin-1-yl)pyridin-2-yl)amino)-4-(8-methylimidazo [1,2-a]pyridin-3-yl)isoindolin-1-one], with under 100 nM; and `Cn1ccc2c(-c3ncc(Nc4ccc(N5CC[C@@H](F)[C@H](O)C5)cn4)c4c3CNC4=O)ccnc21` [I-416, 7-((5-((3R,4R)-4-fluoro-3-hydroxy-piperidin-1-yl)pyridin-2-yl)amino)-4-(1-methyl-1H-pyrrolo[2,3-b]pyridin-4-yl)-2,3-dihydro-1H-pyrrolo[3,4-c]pyridin-1-one], with under 100 nM; and `O=C1NCc2c(-c3cnc4cc(Cl)ccn34)ccc(Nc3ccc(N4CCOCC(O)C4)cn3)c21` (stereo in doubt) [I-595, (S)-4-(7-chloroimidazo [1,2-a]pyridin-3-yl)-7-((5-(6-hydroxy-1.4-oxazepan-4-yl)pyridin-2-yl)amino)isoin-dolin-1-one], with under 100 nM. Under `Cc1cnn2c(-c3ccc(Nc4ccc(N5CCC(O)CC5)cn4)c4c3CNC4=O)cnc2c1` [I-184, 7-[[5-(4-hydroxy-1-piperidyl)-2-pyripyl]amino]-4-(7-methylimidazo [1,2-b]pyridazin-3-yl)isoindolin-1-one] stands under 100 nM; under `Cc1ccn2c(-c3ccc(Nc4ccc(N5CCNCC5)cn4)c4c3CNC4=O)cnc2c1` [I-72, 4-(7-methylimidazo [1,2-a]pyridin-3-yl)-7-[(5-piperazin-1-yl-2-pyridyl)amino] isoindolin-1-one], under 100 nM. On to `Cn1ccc2c(-c3ncc(Nc4ccc(N5CCC(O)CC5)cn4)c4c3CNC4=O)cccc21` [I-279, 7-((5-(4-hydroxypi-peridin-1-yl)pyridin-2-yl)amino)-4-(1-methyl-1H-indol-4-yl)-2.3-dihydro-1H-pyrrolo[3,4-c]pyridin-1-one], for which the IC50 is under 100 nM. Then `O=C1NCc2c(-c3cnc4ccccn34)ccc(Nc3ccc(N4CC5CCC(C4)N5)cn3)c21` [I-101, 7-[[5-(3,8-diazabicyclo [3,2.1]octan-3-yl)-2-pyridyl]amino]-4-imidazo[1,2-a]pyridin-3-yl-isoindolin-1-one], with under 100 nM; and `O=C1NCc2c(-c3c[nH]c4ccccc34)ncc(Nc3ccc(N4CCNCC4)cn3)c21` [I-1, 4-(1H-indol-3-yl)-7-[(5-piperazin-1-yl-2-pyridyl)amino]-2,3-dihydropyrrolo [3,4-c]pyridin-1-one], with 100 to 1000 nM. For the compound `O=C1NCc2c(-c3cnc4cc(F)ccn34)ccc(Nc3ccc([C@H]4CCOC4)c(CN4CC[C@@H](F)C4)n3)c21` (stereo in doubt) [I-741, 4-(7-fluoroimidazo [1,2-a]pyridin-3-yl)-7-((6-(((R)-3-fluoropyrrol-idin-1-yl)methyl)-5-((S)-tetrahydrofur-an-3-yl)pyridin-2-yl)amino)isoin-dolin-1-one], the IC50 was under 100 nM.

With `CN1CCN(c2ccc(Nc3cnc(-c4cccc5[nH]ccc45)c4c3C(=O)NC4)nc2)CC1` [I-252, 4-(1H-indol-4-yl)-7-((5-(4-methylpiperazin-1-yl)pyridin-2-yl)amino)-2,3-dihydro-1H-pyrrolo[3,4-c]pyridin-1-one], the IC50 lay in the range of 100 to 1000 nM.

For the compound `CN(C)CCc1nc(Nc2cnc(-c3ccnc4c3ccn4C)c3c2C(=O)NC3)ccc1C1CCOC1` (stereo in doubt) [I-807, (R)-7-((6-(2-(dimethylami-no)ethyl)-5-(tetrahydrofuran-3-yl)pyridin-2-yl)amino)-3-(1-methyl-1H-pyrrolo[2,3-b)pyridin-4-yl)-2,3-dihydro-1H-pyrrolo[3,4-c]pyridin-1-one], the IC50 was under 100 nM. Under `N#Cc1ccn2c(-c3ccc(Nc4ccc(N5CCNCC5)cn4)c4c3CNC4=O)cnc2c1` [I-120] stands under 100 nM; under `C[C@H](c1ccc(Nc2ccc(-c3cnc4cc(F)ccn34)c3c2C(=O)NC3)nc1)N1CCO[C@@H](C)C1` [I-523, 4-(7-fluoroimidazo [1,2-a]pyridin-3-yl)-7-((5-((R)-1-((S)-2-methylmorpho-lino)ethyl)pyr-idin-2-yl)amino) isoin-dolin-1-one], under 100 nM; under `COC1CCN(c2ccc(Nc3cnc(-c4cnc5c(F)cccn45)c4c3C(=O)NC4)nc2)CC1` [I-455, 4-(8-fluoroimidazo [1,2-a]pyridin-3-yl)-7-[[5-(4-methoxy-1-piperidyl)-2-pyridyl]amino]-2,3-dihydropyrrolo [3,4-c]pyridin-1-one], 100 to 1000 nM. `COC[C@@H]1CN(c2ccc(Nc3ccc(-c4cnc5c(F)c(C)ccn45)c4c3C(=O)NC4)nc2)CCO1` [I-579, (S)-4-(8-fluoro-7-methylimidazo [1,2-a]pyridin-3-yl)-7-((5-(2-(methoxymeth-yl)morpho-lino)pyridin-2-yl)amino)isoin-dolin-1-one]: the IC50 is under 100 nM.

For the compound `CN(C)Cc1nc(Nc2ccc(-c3cnc4cc(F)ccn34)c3c2C(=O)NC3)ccc1C1(O)CCOCC1` [I-719, 7-((6-((dimethylamino)-methyl)-5-(4-hydroxytetra-hydro-2H-pyran-4-yl)pyridin-2-yl)amino)-4-(7-fluoroimidazo [1,2-a]pyridin-3-yl)isoindolin-1-one], the IC50 is under 100 nM. Under `C[C@H](O)[C@@H]1CN(c2ccc(Nc3ccc(-c4cnc5cc(F)ccn45)c4c3C(=O)NC4)nc2)CCO1` (single isomer, unassigned) [I-620] stands under 100 nM; under `Cn1ccc2c(-c3ncc(Nc4ccc(N5CCO[C@@H](C(C)(C)O)C5)cn4)c4c3CNC4=O)ccnc21` [I-459], under 100 nM; under `C[C@H](O)[C@H]1CCCN(c2ccc(Nc3ccc(-c4cnc5cc(F)ccn45)c4c3C(=O)NC4)nc2)C1` (stereo in doubt) [I-356, 4-(7-fluoroimidazo [1,2-a]pyridin-3-yl)-7-((5-((R)-3-((R)-1-hydroxyethyl)piperidin-1-yl)pyridin-2-yl)amino)isoin-dolin-1-one], under 100 nM. Under `Cn1ccc2c(-c3ccc(Nc4ccc(N5CCC[C@@H](C(C)(C)O)C5)cn4)c4c3CNC4=O)ccnc21` (single isomer, unassigned) [I-281] stands under 100 nM.

As for `CN1CCN(c2ccc(Nc3ccc(-c4cnn5ccncc45)c4c3C(=O)NC4)nc2)CC1` [I-113, 7-[[5-(4-methylpiperazin-1-yl)-2-pyridyl]amino]-4-pyrazolo[1,5-a]pyrazin-3-yl-isoindolin-1-one], the IC50 is under 100 nM. Then `O=C1NCc2c(-c3cnc4n3CCCCC4)ccc(Nc3ccc(N4CCC(O)CC4)cn3)c21` [I-288, 7-((5-(4-hydroxy-piperidin-1-yl)pyridin-2-yl)amino)-4-(6,7,8,9-tetrahydro-5H-imidazo[1,2-a]azepin-3-yl)isoindolin-1-one], with 100 to 1000 nM; and `C[C@@H](O)[C@@H]1CN(c2ccc(Nc3ccc(-c4cnc5cc(F)ccn45)c4c3C(=O)NC4)nc2)CCO1` [I-635, 4-(7-fluoroimidazo[1,2-a]pyridin-3-yl)-7-((5-((S)-2-((R)-1-hydroxyethyl)morpholino)pyridin-2-yl)amino)isoindolin-1-one], with under 100 nM; and `Cn1ccc2c(-c3ccc(Nc4ccc(N5CCC[C@H](C(C)(C)O)C5)cn4)c4c3CNC4=O)ccnc21` (single isomer, unassigned) [I-280], with under 100 nM. Under `Cn1ccc2c(-c3ccc(Nc4ccc(C5(C)CCNCC5)cn4)c4c3CNC4=O)ccnc21` [I-272, 4-(1-methyl-1H-pyrrolo[2,3-b]pyridin-4-yl)-7-((5-(4-methylpiperidin-4-yl)pyridin-2-yl)amino)isoin-dolin-1-one] stands under 100 nM.
